pIC50: −log10 of the molar value. Several values for one entry are separate records, joined by “and”; a condition that tells them apart may be missing. Equal entries are not always repeated. Where only a bound is given, the exact number is not on record here.

Results on 87 compounds are retold here after ChEMBL document CHEMBL5604066, “ASAP - DENV-4 NS2B-NS3 protease fluorescence dose response” (2024).

For this test, the target named is T1, NS3 protease (dengue virus type 4, UniProt A0A0K0TQ36).
T1 sequence (A0A0K0TQ36 whole entry): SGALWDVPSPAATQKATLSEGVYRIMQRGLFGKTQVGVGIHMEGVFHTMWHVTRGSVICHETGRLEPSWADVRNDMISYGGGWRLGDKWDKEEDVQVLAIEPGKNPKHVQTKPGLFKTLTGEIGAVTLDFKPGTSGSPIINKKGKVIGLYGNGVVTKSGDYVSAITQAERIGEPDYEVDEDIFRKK
Kind of test: Functional biochemical assay to identify treatments for viral infectious disease that targets Dengue virus type 4 NS2B-NS3 protease. Utilizing a direct enzyme activity measurement method, reading the fluorescence intensity is used to characterize the relative potency of inhibitors as IC50. On the set-up: species or system Philippines/H241/1956.
Turning to `O=C1Cc2c(cc(Br)cc2C(=O)Nc2ccc3c(c2)CNC3)N1`, the pIC50 (commonly the negative decadic logarithm of the IC50, by convention in mol/L) was 4.06.

As for `O=C(Nc1ccc2c(c1)CNC2)c1cc(Cl)cc(C(F)(F)F)n1`, the pIC50 was 4.64.

Take `CNC(=O)[C@H](Nc1cc(CN)cc(-c2nn[nH]n2)c1)c1cc(Cl)cc(C2CC2)c1`: the negative-log IC50 (pIC50) was < 4.00.

Take `NCc1cccc(-c2csc3cc(C(=O)Nc4ccc5c(c4)CNC5)ccc23)c1`: the negative-log IC50 (pIC50) is 4.36.

In turn, `O=C(Nc1ccc2c(c1)CNC2)c1ccc2c(C3=CCNCC3)csc2c1` showed a negative-log IC50 (pIC50) of 4.15.

As for `O=C(Nc1ccc2c(c1)CNC2)c1cc(F)cc2[nH]c(-c3cccc(F)c3)nc12`, the pIC50 is 5.43.

Consider `O=C(Nc1ccc2c(c1)CNC2)c1cc(Cl)cc2c1CCC2`, for which the pIC50 is < 4.00.

In turn, `O=C(Nc1ccc2c(c1)CNC2)c1cc(F)cc2[nH]c(-c3ccccc3F)nc12` gave a pIC50 of 5.28.

Regarding `O=C(Nc1ccc2c(c1)CNC2)c1cc(F)c2[nH]ccc2c1`, the negative logarithm of the IC50 (pIC50) was < 4.00.

On to `O=C(NCC(F)F)[C@H](Nc1ccc2c(c1)CNC2)c1cc(F)cc2[nH]ncc12`, for which the pIC50 was < 4.00.

Compound `O=C(Nc1cc(Cl)cc(C(=O)Nc2cccc(-n3nn[nH]c3=O)c2)c1)OCc1ccccc1` had a pIC50 of 4.86.

`O=C(Nc1cc2c(cc1Br)CNC2)c1cc(F)cc2[nH]ncc12`: the pIC50 is < 4.00.

Regarding `O=C(Nc1ccc2c(c1)CNCC2)c1cc(Cl)cc2[nH]ncc12`, the negative-log IC50 (pIC50) was < 4.00.

The compound `CCc1cc(C(=O)Nc2cccc(-n3nn[nH]c3=O)c2)sc1-c1ccc(Cl)cc1` had a pIC50 of 4.88.

For `COc1cccc(-c2nc3c(C(=O)Nc4ccc5c(c4)CNC5)cc(F)cc3[nH]2)c1`, the pIC50 was 5.27.

As for `CC(C)NC(=O)[C@H](Nc1ccc2c(c1)CNC2)c1cc(Cl)cc2[nH]c(-c3ccccc3)nc12`, the pIC50 is 4.83 and 5.36.

`O=C1Cc2c(cc(F)cc2C(=O)Nc2ccc3c(c2)CNC3)N1` showed a negative logarithm of the IC50 (pIC50) of 4.27.

Consider `C=CC[C@H]1NCc2cc(N[C@H](C(=O)NC(C)C)c3cc(Cl)cc4[nH]ncc34)ccc21`, for which the pIC50 is < 4.00.

As to `N[C@H]1CC[C@H](c2ccc(NC(=O)c3cc(Cl)cc(NC(=O)OCc4ccccc4)c3)cc2)C1`, the negative logarithm of the IC50 (pIC50) is 5.12.

For `O=C(Nc1cc(Cl)cc(C(=O)Nc2ccc3c(c2)CNC3)c1)OCc1ccccc1`, the pIC50 is 4.04.

The compound `Cc1cccc(-c2nc3c(C(=O)Nc4ccc5c(c4)CNC5)cc(F)cc3[nH]2)c1` had a pIC50 of 5.23.

The compound `COc1cc(-c2cc(NC(=O)c3cc(F)cc4[nH]ncc34)cc3c2CNC3)ccn1` showed a pIC50 of 4.37.

For the compound `O=C(Nc1ccc2c(c1)CNC2)c1cc(Cl)cc2ccncc12`, the pIC50 was < 4.00.

`Cc1ccc(NC(=O)c2cc(Cl)cc(NC(=O)OCc3ccccc3)c2)cc1CN`: the pIC50 was 4.15.

`O=C1Cc2c(cccc2C(=O)Nc2ccc3c(c2)CNC3)N1` showed a pIC50 of 4.82.

For the compound `O=C(NC1CCOCC1)[C@H](Nc1ccc2c(c1)CNC2)c1cc(Cl)cc(C2CC2)c1`, the negative logarithm of the IC50 (pIC50) is < 4.00.

With `OCC#C[C@H](Nc1ccc2c(c1)CNC2)c1cc(Cl)cc2[nH]ncc12`, the pIC50 is 4.65.

With `CN1Cc2ccc(NC(=O)c3cc(Cl)cc4[nH]ncc34)cc2C1`, the pIC50 is < 4.00.

In turn, `O=C(Nc1ccc2c(c1)CNC2)c1cc(F)cc2[nH]c(-c3ccc(F)cc3)nc12` showed a pIC50 of 5.44.

As to `Cc1c(C(=O)Nc2cc(-c3cccnc3)ccn2)cc(C2CC2)n1C`, the pIC50 is 5.17.

Consider `O=C(Nc1ccc2c(c1)CNC2)c1cc(Cl)cc2cn[nH]c12`, for which the pIC50 was < 4.00.

`Cc1c(C(=O)Nc2cc(CCCN)ccn2)cc(C2CC2)n1C` gave a pIC50 of 4.41.

Regarding `C=CC[C@H]1NCc2cc(NC(=O)c3cc(F)cc4[nH]ncc34)ccc21`, the negative logarithm of the IC50 (pIC50) is < 4.00.

As to `C=CC[C@H]1NCc2cc(NC(=O)c3cccc4c3CC(=O)N4)ccc21`, the pIC50 is < 4.00.

Compound `Cn1cc(CCc2nc3c(C(=O)Nc4ccc5c(c4)CNC5)cc(Cl)cc3[nH]2)cn1` showed a negative-log IC50 (pIC50) of 4.58.

In the case of `O=C(Nc1cc(Cl)cc([C@H](C#CCO)Nc2cccc(-c3nn[nH]n3)c2)c1)OCc1ccccc1`, the pIC50 was 4.80.

For `Cn1cc(CNC(=O)[C@H](Nc2ccc3c(c2)CNC3)c2cc(Cl)cc(C3CC3)c2)cn1`, the negative logarithm of the IC50 (pIC50) was < 4.00.

Turning to `O=C(Nc1ccc2c(c1)CNC2)c1ccc2[nH]ccc2c1`, the pIC50 is < 4.00.

The compound `O=C(Nc1cc2c(c(C3=CCOCC3)c1)CNC2)c1cc(F)cc2[nH]ncc12` showed a pIC50 of 4.52.

With `O=C(Nc1cc(Br)c2c(c1)CNC2)c1cc(F)cc2[nH]ncc12`, the pIC50 is < 4.00.

`CC(C)c1nnc(-c2nc3c(C(=O)Nc4ccc5c(c4)CNC5)cc(F)cc3[nH]2)s1` gave a pIC50 of 5.01.

Take `N=C(N)NCCC[C@H](NC(=O)c1nccs1)C(=O)N[C@@H](CCCCN)C(=O)N[C@@H](C(N)=O)c1ccc(OCc2ccc(C(F)(F)F)cc2)cc1`: the negative-log IC50 (pIC50) is 5.59 and 5.76 and 5.57 and 5.83 and 5.94 and 5.73 and 5.98.

Consider `Clc1cc(CNc2ccc3c(c2)CNC3)c2cn[nH]c2c1`, for which the negative logarithm of the IC50 (pIC50) was 4.41.

With `Cn1c(=O)[nH]c2c(C(=O)Nc3ccc4c(c3)CNC4)cc(Br)cc21`, the pIC50 was < 4.00.

In turn, `O=C(Nc1cc2c(c(C3=CCS(=O)(=O)CC3)c1)CNC2)c1cc(F)cc2[nH]ncc12` showed a pIC50 of 4.30.

As to `O=C(NCCC1CC1)[C@H](Nc1ccc2c(c1)CNC2)c1cc(Cl)cc(C2CC2)c1`, the pIC50 was < 4.00.

As to `C=CC[C@H]1NCc2cc(NC(=O)c3cc(Cl)cc4[nH]ncc34)ccc21`, the pIC50 is < 4.00.

In the case of `C=CC[C@H](Nc1cc(Cl)cc(NC(=O)OCc2ccccc2)c1)c1cccc(-c2nn[nH]n2)c1`, the negative logarithm of the IC50 (pIC50) is 5.11.

Consider `O=C(Nc1cc(Cl)cc([C@H]2C[C@@H]2c2cccc(C3CCNCC3)c2)c1)OCc1ccccc1`, for which the negative logarithm of the IC50 (pIC50) was 5.26.

`N#Cc1ccc(-c2nc3c(C(=O)Nc4ccc5c(c4)CNC5)cc(F)cc3[nH]2)cc1`: the pIC50 is 5.72.

In the case of `N#C[C@H](Nc1ccc2c(c1)CNC2)c1cc(Cl)cc(C2CC2)c1`, the pIC50 is < 4.00.

For `CC(C)NC(=O)[C@H](Nc1ccc2c(c1)CNC2)c1cc(Cl)cc2[nH]ncc12`, the pIC50 was 4.30.

`O=C(Nc1ccc2c(c1)CNC2)c1cc(Br)cc2ccccc12`: the pIC50 is < 4.00.

The compound `O=C(NC1CCOCC1)[C@H](Nc1ccc2c(c1)CNC2)c1cc(Cl)cc2[nH]ncc12` showed a pIC50 of 4.36.

`O=C(Nc1ccc2c(c1)CNC2)c1cc(Br)cc2[nH]c(-c3ccccc3)nc12` had a pIC50 of 5.53.

Take `O=C1Cc2cc(C(=O)Nc3ccc4c(c3)CNC4)ccc2N1`: the pIC50 is 4.85 and 5.09.

Turning to `N=C(N)NCCC[C@H](NC(=O)[C@H](Cc1ccc(CN)cc1)NC(=O)c1ccccc1)B(O)O`, the pIC50 was 6.10 and 6.30.

Take `O=C(Nc1ccc2c(c1)CNC2)c1cc(Cl)cc2cc[nH]c12`: the pIC50 is < 4.00.

In the case of `O=C(NCC(F)F)[C@H](Nc1ccc2c(c1)CNC2)c1cc(Cl)cc(C2CC2)c1`, the negative logarithm of the IC50 (pIC50) was < 4.00.

`Cc1nc2c(C(=O)Nc3ccc4c(c3)CNC4)cc(Cl)cc2[nH]1` gave a pIC50 of 4.57.

Regarding `CC(C)c1cc(Br)cc(C(=O)Nc2ccc3c(c2)CNC3)c1`, the pIC50 is < 4.00.

For `NCc1ccc(-c2csc3cc(C(=O)Nc4ccc5c(c4)CNC5)ccc23)cc1`, the pIC50 was 4.27.

Compound `NCc1cccc([C@H]2C[C@@H]2c2cc(Cl)cc(NC(=O)OCc3ccccc3)c2)c1` had a pIC50 of 5.10.

With `NCCc1csc2cc(C(=O)Nc3ccc4c(c3)CNC4)ccc12`, the pIC50 was < 4.00.

Compound `O=C(Nc1ccc2c(c1)CNC2)c1cccc2c(C3CNC3)n[nH]c12` had a pIC50 of 4.49.

The compound `O=C(Nc1ccc2c(c1)CNC2)c1cccc2cn[nH]c12` showed a pIC50 of 4.35.

As to `NCc1ccc([C@H]2C[C@@H]2c2cc(Cl)cc(NC(=O)OCc3ccccc3)c2)cc1`, the pIC50 was 5.16.

Turning to `O=C(Nc1ccc2c(c1)CNC2)c1cc(Cl)cc2[nH]ncc12`, the pIC50 is < 4.00.

Consider `N#Cc1cccc(-c2nc3c(C(=O)Nc4ccc5c(c4)CNC5)cc(F)cc3[nH]2)c1`, for which the negative logarithm of the IC50 (pIC50) is 5.54.

`O=C(Nc1ccc2c(c1)CNC2)c1cccc2[nH]c(=O)[nH]c12` had a pIC50 of 4.13.

Compound `CC(C)CNC(=O)c1cc(Cl)ccc1NS(=O)(=O)c1ccc(Oc2ccccc2Cl)cc1` gave a negative-log IC50 (pIC50) of 4.82.

For `N#C[C@H](Nc1cccc(-c2nn[nH]n2)c1)c1cc(Cl)cc(NC(=O)OCc2ccccc2)c1`, the pIC50 was 4.90.

`O=C(Nc1cc(Cl)cc([C@H]2CN(Cc3ccccc3)C[C@@H]2c2cccc(-c3nn[nH]n3)c2)c1)OCc1ccccc1` showed a pIC50 of 5.17.

With `Cc1c(C(=O)Nc2cc([C@H]3CCOC3)ccn2)cc(C2CC2)n1C`, the pIC50 is < 4.00.

`CNC(=O)[C@H](Nc1cc(Cl)cc(NC(=O)OCc2ccccc2)c1)c1cccc(-c2nn[nH]n2)c1`: the pIC50 was 4.21.

On to `O=C(NCC(F)F)[C@H](Nc1ccc2c(c1)CNC2)c1cc(F)cc2[nH]ccc12`, for which the negative logarithm of the IC50 (pIC50) was < 4.00.

Consider `O=C(Nc1ccc2c(c1)CNC2)c1ccc2[nH]cc(C3CCNCC3)c2c1`, for which the pIC50 was 4.43.

`O=C(Nc1ccc2c(c1)CNC2)c1cc(F)cc2[nH]ncc12`: the negative-log IC50 (pIC50) was < 4.00.

Consider `NCCc1csc2cc(C(=O)Nc3cc([C@H]4CCOC4)ccn3)ccc12`, for which the pIC50 was < 4.00.

As to `O=C(Nc1ccc2c(c1)CNC2)c1cccc2[nH]c(C(F)(F)F)cc12`, the pIC50 is < 4.00.

Take `COCCNC(=O)[C@H](Nc1ccc2c(c1)CNC2)c1cc(Cl)cc(C2CC2)c1`: the pIC50 was < 4.00.

In the case of `NCc1csc2cc(C(=O)Nc3ccc4c(c3)CNC4)ccc12`, the pIC50 is 4.93.

In turn, `Clc1cc([C@@H]2C[C@H]2c2cccc(C3CCNCC3)c2)c2cn[nH]c2c1` gave a pIC50 of 5.23.

`Clc1ccc2[nH]cc(Cc3ccc(-c4nn[nH]n4)cc3)c2c1` had a pIC50 of 4.00.

The compound `Cc1ccccc1-c1nc2c(C(=O)Nc3ccc4c(c3)CNC4)cc(F)cc2[nH]1` gave a pIC50 of 5.49.

Take `CC(C)(c1nc2c(C(=O)Nc3ccc4c(c3)CNC4)cc(F)cc2[nH]1)S(C)(=O)=O`: the pIC50 was 4.74.

As for `N#C[C@H](Nc1ccc2c(c1)CNC2)c1cc(Cl)cc2[nH]ncc12`, the pIC50 is < 4.00.
